Where a name gives a salt, the structure may show the parent alone.
Key:
human LOXL2 = human LOXL2 (Homo sapiens (Human), UniProt Q9Y4K0); assay: Human LOXL2 amine oxidase activity assay (Amplex Red); type: biochemical; conditions: concentrated conditioned media from CHO cells expressing human LOXL2, 2 h preincubation at 37° C., DAP substrate
Procedure: Example B-2: Human LOXL2 Amine Oxidase Activity Assay
LOXL2 amine oxidase activity was evaluated by measuring Amplex Red fluorescence using 10-20× concentrated conditioned media from CHO cells stably expressing human LOXL2. To assay for amine oxidase activity, 10 μL of the concentrated conditioned media was incubated with 2 μL of test compound in DMSO and 73 μL Assay Buffer (50 mM Borate Buffer, pH8) for 2 h at 37° C. After the 2 h incubation, 5 μL of 10 mM 1,5-Diaminopentane (DAP) diluted in Assay Buffer and 10 μL of Amplex Red Mix (8.5 μL Assay Buffer+0.5 μL of 10 mM Amplex Red+1 μL of 500 U/ml Horseradish Peroxidase) were added and the plate mixed and immediately placed on the FlexStation for fluorescence measurements. Fluorescence was read in kinetic mode every 2 min for 0.5-1 hour at excitation=544 and emission=590. The amine oxidase activity was calculated from the slope of the linear portion of the curve. Wells containing vehicle (DMSO) represented maximum activity and were set to 0% inhibition and wells containing 100 μM βAPN (3-aminopropionitrile) represented no activity and were set to 100% inhibition.

ASK1 = ASK1 (Homo sapiens (Human), UniProt Q99683); assay: Human ASK1 ADP-Glo kinase assay; type: biochemical; conditions: recombinant ASK1 (amino acids 649-946), 50 μM ATP, MBP substrate
ASK1, sequence (Q99683 649-946): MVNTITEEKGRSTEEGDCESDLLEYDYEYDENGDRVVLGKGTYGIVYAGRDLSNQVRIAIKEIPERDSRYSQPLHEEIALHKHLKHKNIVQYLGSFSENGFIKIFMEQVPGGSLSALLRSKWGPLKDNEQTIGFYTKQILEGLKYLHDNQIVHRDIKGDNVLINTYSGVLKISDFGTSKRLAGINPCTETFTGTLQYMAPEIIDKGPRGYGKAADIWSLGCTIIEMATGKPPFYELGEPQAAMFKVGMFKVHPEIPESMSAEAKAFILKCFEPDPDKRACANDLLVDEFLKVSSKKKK
Procedure: Example B-1: Human ASK1 ADP-Glo Assay
The ability of test compounds to inhibit ASK1 kinase activity was determined using the luminescent ADP-Glo™ Kinase Assay and Myelin Basic Protein (MBP) as a substrate (Promega Corporation, Madison, Wis.). During the kinase reaction, ASK1 utilizes ATP and generates ADP. The remaining ATP is then depleted by addition of the ADP-Glo™ reagent which also terminates the reaction. Subsequent addition of the Kinase Detection Reagent converts the ADP that was produced during the kinase reaction to ATP, and this newly synthesized ATP is converted to light using the luciferase/luciferin reactions. The assay was performed according to the manufacturer's instructions. Briefly, purified, recombinant ASK1 (amino acids 649-946) (10-20 ng/well) was added to a 384-well, F bottom, small volume, HIbase, white plate (Greiner Bio-One, Monroe, N.C. #784075) containing 1-2 μL 5× test compound or vehicle control (diluted 1:20 from a 100% DMSO stock solution into 1× Reaction Buffer A). The enzyme was allowed to pre-incubate with test compound from 15-120 min at 30° C. before the addition of the ATP/substrate mix (final concentrations of 50 μM ATP+250 ng MBP in 1× Reaction Buffer A). The mixture was then incubated at room temperature for 40 min before the addition of ADP-Glo™ reagent and a second 40 minute room temperature incubation. Following the addition of the Kinase Detection Reagent, the plate was incubated for an additional 40 min at room temperature before reading luminescence on a FlexStation 3 (Molecular Devices, Sunnyvale, Calif.). Maximum activity was determined from wells treated with vehicle and was set to 100% and minimum activity was determined from wells containing no enzyme and this was set to 0%. Percent inhibition was calculated relative to the controls and the data graphed in Collaborative Drug Discovery (CDD) Vault (Burlingame, Calif.).

human LOXL2, sequence (Q9Y4K0 26-774): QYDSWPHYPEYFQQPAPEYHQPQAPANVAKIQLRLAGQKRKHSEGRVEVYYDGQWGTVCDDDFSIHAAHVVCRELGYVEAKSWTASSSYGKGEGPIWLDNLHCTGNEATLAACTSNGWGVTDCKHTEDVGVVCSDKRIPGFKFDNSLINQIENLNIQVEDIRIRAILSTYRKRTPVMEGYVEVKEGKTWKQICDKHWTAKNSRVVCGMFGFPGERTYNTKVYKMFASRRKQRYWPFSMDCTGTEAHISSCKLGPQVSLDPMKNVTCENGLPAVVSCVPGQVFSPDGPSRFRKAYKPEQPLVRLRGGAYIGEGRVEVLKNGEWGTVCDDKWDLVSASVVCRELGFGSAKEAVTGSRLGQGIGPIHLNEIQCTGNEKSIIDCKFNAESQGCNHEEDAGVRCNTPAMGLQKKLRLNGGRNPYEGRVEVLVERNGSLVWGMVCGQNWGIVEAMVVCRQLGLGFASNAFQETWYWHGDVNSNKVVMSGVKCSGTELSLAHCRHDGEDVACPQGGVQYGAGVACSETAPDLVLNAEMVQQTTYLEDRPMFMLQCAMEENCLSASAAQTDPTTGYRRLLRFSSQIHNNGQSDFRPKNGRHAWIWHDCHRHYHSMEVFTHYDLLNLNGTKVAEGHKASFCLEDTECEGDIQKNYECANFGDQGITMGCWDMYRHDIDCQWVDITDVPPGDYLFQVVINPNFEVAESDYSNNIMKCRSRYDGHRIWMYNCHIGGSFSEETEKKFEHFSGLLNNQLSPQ

IC50 (human LOXL2) [nM]	IC50 (ASK1) [nM]	Structure (SMILES)
< 300	< 300	NCc1cc(Oc2ccnc(C(=O)Nc3cccc(-c4nncn4C4CC4)n3)c2)nc(C(F)(F)F)c1 [Compound 1-330, 4-((4-(Aminomethyl)-6-(trifluoromethyl)pyridin-2-yl)oxy)-N-(6-(4-cyclopropyl-4H-1,2,4-triazol-3-yl)pyridin-2-yl)picolinamide hydrochloride]
> 1000	< 300	CC(C)n1cnnc1-c1cccc(NC(=O)c2cc(NC(=O)c3ccc(CN)cc3)ccc2F)n1 [Compound 1-306, 5-(4-(Aminomethyl)benzamido)-2-fluoro-N-(6-(4-isopropyl-4H-1,2,4-triazol-3-yl)pyridin-2-yl)benzamide hydrochloride]
< 300	< 300	CC(C)n1cnnc1-c1cccc(NC(=O)c2cccc(Oc3cc(CN)cc(C(F)(F)F)n3)c2)n1 [Compound 1-331, 3-((4-(Aminomethyl)-6-(trifluoromethyl)pyridin-2-yl)oxy)-N-(6-(4-isopropyl-4H-1,2,4-triazol-3-yl)pyridin-2-yl)benzamide hydrochloride]

Source: patent US11345676B2, “Apoptosis signal-regulating kinase 1 (ASK 1) inhibitor compounds” (PHARMAKEA, INC., priority 2017, dated 2022)
